Holding throughout (type): biochemical
The target in assay [1] is T1, amyloglucosidase (α-Glcase3) (Aspergillus niger, UniProt P69328).
T1 construct: purchased
Put plainly: Commercial glycosidase inhibition: amyloglucosidase (α-Glcase3). Particulars: mean ± SD, three determinations; competitive; n.i. = no inhibition detected at 1 mM. An excerpt:
(§1) We first evaluated the inhibitory properties of the new nonreducing mono- and bicyclic sp^2-iminosugars 4–15 against a panel of commercial glycosidases that included the α-glucosidases maltase (yeast maltase; α-Glcase1) and isomaltase (α-Glcase2) from Saccharomyces cerevisiae and amyloglucosidase (α-Glcase3) from Aspergillus niger, the β-glucosidases from almonds (β-Glcase1) and bovine liver (β-Glcase2), the α-galactosidase from green coffee beans (α-Galase), the β-galactosidase from Escherichia coli (β-Galase), and the α-mannosidase from Jack bean (α-Manase).
(§2) Inhibition constant (Ki) values were determined by spectrophotometrically measuring the residual hydrolytic activities of the glycosidases against the respective o- (for β-galactosidase from E. coli) or p-nitrophenyl α- or β-D-glycopyranoside (for other glycosidases) in the presence of the iminosugars. Each assay was performed in phosphate buffer or phosphate-citrate buffer (for α- or β-mannosidase and amyloglucosidase) at the optimal pH for the enzymes. The reactions were initiated by addition of the enzyme to a solution of the substrate in the absence or presence of various inhibitor concentrations. The mixture was incubated for 10–30 min at 37 °C or 55 °C (for amyloglucosidase) and the reaction was quenched by addition of 1 M Na2CO3. Reaction times were appropriate to obtain 10–20% conversion of the substrate in order to achieve linear rates. The absorbance of the resulting mixture was determined at 405 nm. Approximate value of Ki was determined from the slope of Dixon plots using a fixed concentration of substrate (around the Km value for the different glycosidases) and various concentrations of inhibitor. Full Ki determinations and enzyme inhibition mode were determined from the slope of Lineweaver–Burk plots and double reciprocal analysis.

In assay [2] the target is T2, α-mannosidase from Jack bean (α-Manase) (Canavalia ensiformis, UniProt C0HJB3).
T2 construct: purchased
T2 sequence (C0HJB3 1-981): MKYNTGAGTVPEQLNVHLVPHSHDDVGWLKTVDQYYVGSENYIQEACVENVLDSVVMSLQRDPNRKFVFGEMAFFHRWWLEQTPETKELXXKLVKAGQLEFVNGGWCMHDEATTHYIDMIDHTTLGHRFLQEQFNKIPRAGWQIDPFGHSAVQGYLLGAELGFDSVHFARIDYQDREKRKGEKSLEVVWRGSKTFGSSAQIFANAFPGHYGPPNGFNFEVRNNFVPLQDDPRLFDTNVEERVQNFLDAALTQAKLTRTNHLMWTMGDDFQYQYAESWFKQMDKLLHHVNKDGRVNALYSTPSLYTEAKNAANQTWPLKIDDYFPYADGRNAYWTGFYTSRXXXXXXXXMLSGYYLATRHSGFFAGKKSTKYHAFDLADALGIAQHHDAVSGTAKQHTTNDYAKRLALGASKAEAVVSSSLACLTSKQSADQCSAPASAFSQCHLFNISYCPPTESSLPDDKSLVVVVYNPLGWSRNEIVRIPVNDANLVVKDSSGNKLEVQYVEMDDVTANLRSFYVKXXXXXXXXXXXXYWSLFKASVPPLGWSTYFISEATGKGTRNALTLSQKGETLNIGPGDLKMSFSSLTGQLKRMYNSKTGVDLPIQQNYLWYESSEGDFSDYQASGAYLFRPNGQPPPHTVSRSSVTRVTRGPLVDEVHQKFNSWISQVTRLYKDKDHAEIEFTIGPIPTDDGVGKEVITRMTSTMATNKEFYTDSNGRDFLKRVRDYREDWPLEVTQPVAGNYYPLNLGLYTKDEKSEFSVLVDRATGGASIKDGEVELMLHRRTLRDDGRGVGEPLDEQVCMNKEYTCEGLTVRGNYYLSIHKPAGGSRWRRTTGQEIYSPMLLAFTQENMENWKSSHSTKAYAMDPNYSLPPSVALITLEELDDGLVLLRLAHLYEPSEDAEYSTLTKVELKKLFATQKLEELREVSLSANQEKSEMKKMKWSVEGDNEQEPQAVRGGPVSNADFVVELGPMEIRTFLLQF
Put plainly: Commercial glycosidase inhibition: α-mannosidase from Jack bean (α-Manase). Particulars: mean ± SD, three determinations; competitive; n.i. = no inhibition detected at 1 mM.
Source text: as §1, §2

Assay [3] deals with T3, β-galactosidase (β-Galase) (Escherichia coli, UniProt P00722).
T3 construct: purchased
In words: Commercial glycosidase inhibition: β-galactosidase from E. coli (β-Galase). Particulars: mean ± SD, three determinations; competitive; n.i. = no inhibition detected at 1 mM.
Source text: as §1, §2

In assay [4] the target is T4, α-glucosidase maltase (yeast maltase; α-Glcase1) (Saccharomyces cerevisiae, UniProt P53341).
T4 construct: purchased
In words: Commercial glycosidase inhibition: maltase (yeast maltase; α-Glcase1). Particulars: three determinations, competitive, n.i. = no inhibition detected at 1 mM.
Source text: as §1, §2

In the next assay the target is T5, isomaltase (α-Glcase2) (Saccharomyces cerevisiae, UniProt P53051).
T5 construct: purchased
Put plainly: Commercial glycosidase inhibition: isomaltase (α-Glcase2).
Source text: as §1, §2

In assay [5] the target is β-glucosidase from almonds (β-Glcase1). In words: Commercial glycosidase inhibition: β-glucosidase from almonds (β-Glcase1). The settings on record: mean ± SD, three determinations; competitive; n.i. = no inhibition detected at 1 mM.
Source text: as §1, §2

In assay [6] the target is T6, α-galactosidase from green coffee beans (α-Galase) (Coffea arabica, UniProt Q42656).
T6 construct: purchased
Put plainly: Commercial glycosidase inhibition: α-galactosidase from green coffee beans (α-Galase). Particulars: mean ± SD, three determinations; competitive; n.i. = no inhibition detected at 1 mM.
Source text: as §1, §2

[7] abbreviates: mean ± SD, three determinations, competitive, n.i. = no inhibition detected at 1 mM.
[8] abbreviates: Dixon or Lineweaver-Burk plot, read-out: Ki against isomaltase (supplement figure legends).
Where [9] appears, read: mean ± SD, three determinations, competitive, n.i. = no inhibition detected at 1 mM, read-out: Ki α-Glcase2.

Where two headings read alike, the source gives them in different places.

T5 sequence (P53051 whole entry): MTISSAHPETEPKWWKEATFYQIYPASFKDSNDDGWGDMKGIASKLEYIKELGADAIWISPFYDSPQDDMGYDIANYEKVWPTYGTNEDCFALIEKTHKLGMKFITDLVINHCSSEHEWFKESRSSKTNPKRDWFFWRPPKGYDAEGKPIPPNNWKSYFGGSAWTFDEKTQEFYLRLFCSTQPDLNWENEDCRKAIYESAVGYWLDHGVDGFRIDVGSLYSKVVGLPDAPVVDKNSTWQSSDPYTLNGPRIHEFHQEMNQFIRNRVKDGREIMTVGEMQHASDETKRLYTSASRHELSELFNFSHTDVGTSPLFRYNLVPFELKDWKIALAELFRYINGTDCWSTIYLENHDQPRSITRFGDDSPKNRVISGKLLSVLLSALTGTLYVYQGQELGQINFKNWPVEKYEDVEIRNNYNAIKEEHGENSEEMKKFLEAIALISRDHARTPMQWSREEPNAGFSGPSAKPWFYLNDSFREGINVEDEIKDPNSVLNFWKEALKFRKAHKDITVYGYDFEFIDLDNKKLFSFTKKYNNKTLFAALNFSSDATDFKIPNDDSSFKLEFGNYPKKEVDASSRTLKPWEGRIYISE
T1 sequence (P69328 25-640): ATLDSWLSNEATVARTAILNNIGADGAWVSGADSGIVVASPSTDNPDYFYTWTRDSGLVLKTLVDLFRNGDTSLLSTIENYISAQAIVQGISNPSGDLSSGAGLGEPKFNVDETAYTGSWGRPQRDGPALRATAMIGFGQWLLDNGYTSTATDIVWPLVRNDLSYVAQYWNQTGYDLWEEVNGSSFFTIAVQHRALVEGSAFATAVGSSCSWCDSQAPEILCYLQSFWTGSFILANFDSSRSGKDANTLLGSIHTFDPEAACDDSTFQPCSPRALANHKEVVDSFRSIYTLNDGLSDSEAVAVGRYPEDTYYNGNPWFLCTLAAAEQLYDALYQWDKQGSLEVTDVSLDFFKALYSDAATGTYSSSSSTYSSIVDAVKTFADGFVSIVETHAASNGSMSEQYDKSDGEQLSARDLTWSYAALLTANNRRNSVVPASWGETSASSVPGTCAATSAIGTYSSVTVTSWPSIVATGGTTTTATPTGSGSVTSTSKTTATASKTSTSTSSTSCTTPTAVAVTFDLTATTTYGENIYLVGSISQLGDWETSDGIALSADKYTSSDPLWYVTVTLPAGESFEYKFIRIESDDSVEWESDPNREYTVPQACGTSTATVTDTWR
T4 sequence (P53341 whole entry): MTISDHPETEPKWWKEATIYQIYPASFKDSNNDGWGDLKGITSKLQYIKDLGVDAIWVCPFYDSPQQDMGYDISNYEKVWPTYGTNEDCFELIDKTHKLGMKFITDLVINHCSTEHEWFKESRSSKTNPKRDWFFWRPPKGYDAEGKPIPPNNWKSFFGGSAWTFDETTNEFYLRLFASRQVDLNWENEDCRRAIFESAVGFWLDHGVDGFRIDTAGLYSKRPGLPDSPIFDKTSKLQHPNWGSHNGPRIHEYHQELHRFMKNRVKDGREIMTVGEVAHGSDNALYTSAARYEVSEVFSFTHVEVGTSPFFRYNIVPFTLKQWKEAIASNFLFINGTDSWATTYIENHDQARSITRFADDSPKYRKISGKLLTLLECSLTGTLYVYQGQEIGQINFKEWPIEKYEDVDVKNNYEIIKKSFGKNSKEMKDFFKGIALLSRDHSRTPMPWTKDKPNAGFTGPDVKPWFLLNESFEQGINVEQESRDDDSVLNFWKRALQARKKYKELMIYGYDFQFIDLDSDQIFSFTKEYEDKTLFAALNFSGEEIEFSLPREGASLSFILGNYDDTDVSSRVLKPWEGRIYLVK
T3 sequence (P00722 2-1024 limits assumed): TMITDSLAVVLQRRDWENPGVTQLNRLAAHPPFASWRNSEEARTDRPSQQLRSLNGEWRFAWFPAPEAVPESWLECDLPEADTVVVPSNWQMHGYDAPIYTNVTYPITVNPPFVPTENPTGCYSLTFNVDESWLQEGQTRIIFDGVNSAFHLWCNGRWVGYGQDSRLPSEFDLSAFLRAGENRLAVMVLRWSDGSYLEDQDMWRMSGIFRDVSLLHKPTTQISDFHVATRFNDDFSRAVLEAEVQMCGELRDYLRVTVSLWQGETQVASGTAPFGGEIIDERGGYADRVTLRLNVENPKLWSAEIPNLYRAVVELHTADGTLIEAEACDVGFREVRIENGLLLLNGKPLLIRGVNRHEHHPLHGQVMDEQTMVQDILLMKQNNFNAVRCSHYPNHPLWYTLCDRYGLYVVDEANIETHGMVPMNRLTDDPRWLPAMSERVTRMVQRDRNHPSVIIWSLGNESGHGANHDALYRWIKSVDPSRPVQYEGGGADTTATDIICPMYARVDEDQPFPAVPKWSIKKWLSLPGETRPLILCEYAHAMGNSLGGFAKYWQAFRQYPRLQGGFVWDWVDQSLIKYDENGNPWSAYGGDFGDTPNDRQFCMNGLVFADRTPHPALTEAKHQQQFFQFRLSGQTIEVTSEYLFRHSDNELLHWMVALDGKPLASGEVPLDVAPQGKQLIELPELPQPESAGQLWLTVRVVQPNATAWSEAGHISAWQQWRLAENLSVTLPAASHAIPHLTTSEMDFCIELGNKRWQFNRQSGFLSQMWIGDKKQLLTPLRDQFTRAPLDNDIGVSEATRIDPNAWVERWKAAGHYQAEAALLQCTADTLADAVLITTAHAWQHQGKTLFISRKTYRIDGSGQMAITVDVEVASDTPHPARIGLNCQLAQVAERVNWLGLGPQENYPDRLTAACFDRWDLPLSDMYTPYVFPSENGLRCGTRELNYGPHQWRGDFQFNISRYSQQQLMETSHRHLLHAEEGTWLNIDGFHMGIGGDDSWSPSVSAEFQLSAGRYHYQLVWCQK
T6 sequence (Q42656 16-378): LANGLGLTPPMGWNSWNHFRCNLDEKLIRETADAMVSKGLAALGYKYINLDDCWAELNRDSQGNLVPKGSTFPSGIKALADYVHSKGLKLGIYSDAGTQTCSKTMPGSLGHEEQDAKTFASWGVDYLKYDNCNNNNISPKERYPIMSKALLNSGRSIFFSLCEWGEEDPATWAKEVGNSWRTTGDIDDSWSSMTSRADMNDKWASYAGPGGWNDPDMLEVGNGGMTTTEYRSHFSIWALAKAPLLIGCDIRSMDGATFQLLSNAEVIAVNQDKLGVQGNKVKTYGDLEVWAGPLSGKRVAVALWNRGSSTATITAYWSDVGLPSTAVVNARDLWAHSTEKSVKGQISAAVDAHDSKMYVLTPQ

Broadly, the Ki is the dissociation constant of the complex between target and ligand, obtained from inhibition or displacement. Regarding `CCCCN=C1SCC2C(O)C(O)C(O)CN12` (stereo not drawn) [Compound 5, 1-Deoxy-6-thio-5-N,6-S-(N′-butyliminomethylidene)nojirimycin], in assay [1], the “Ki α-Glcase3” value is “n.i”. Besides, the “Ki α-Manase” value in assay [2] is “n.i”. In assay [3], the “Ki β-Galase” value is “n.i”. For the same molecule, the “Ki α-Glcase1” value in assay [4] (mean ± SD) is given as “n.i”. Further, at isomaltase (α-Glcase2) (setting [7]), the “Ki α-Glcase2” value is “n.i”. The Ki in assay [5] amounted to 1.1 ± 0.1 µM. Moreover, in assay [6], the “Ki α-Galase” value is “n.i”.

Regarding `OC1CN2C(=Nc3ccccc3)SCC2C(O)C1O` (stereo not drawn) [Compound 6, 1-Deoxy-6-thio-5-N,6-S-(N′-phenyliminomethylidene)nojirimycin], the Ki came to 44 ± 3 µM in assay [1]; 406 ± 20 µM in assay [4] (Ki α-Glcase1, mean ± SD); 44 ± 3 µM at isomaltase (α-Glcase2) (setting [8]); 48 ± 4 µM in assay [5]. In addition, the “Ki α-Manase” value in assay [2] is “n.i”. Also, in assay [3], the “Ki β-Galase” value is “n.i”. Besides, the “Ki α-Glcase2” value at isomaltase (α-Glcase2) (setting [7]) was “n.i”. The “Ki α-Galase” value in assay [6] is “n.i”.

`CCCCCCCCN=C1SCC2C(O)C(O)C(O)CN12` [Compound 7, 5-N,6-S-(N′-Octyliminomethylidene)-6-thio-1-deoxy-L-idonojirimycin]: the “Ki α-Glcase3” value in assay [1] was “n.i”. Further, the “Ki α-Manase” value in assay [2] is given as “n.i”. Also, the “Ki β-Galase” value in assay [3] is “n.i”. Also, in assay [4] (mean ± SD), the “Ki α-Glcase1” value is recorded as “n.i”. On isomaltase (α-Glcase2) (setting [7]), the “Ki α-Glcase2” value is recorded as “n.i”. Besides, the values for the inhibitory constant (Ki) in assay [5] and in assay [6] were 3.9 ± 0.3 µM and 504 ± 32 µM, respectively.

As to `CCCCN=C1SCC2C(O)C(O)C(O)CN12` [Compound 8, 5-N,6-S-(N′-Butyliminomethylidene)-6-thio-1-deoxy-L-idonojirimycin], the “Ki α-Glcase3” value in assay [1] is “n.i”. Also, the “Ki α-Manase” value in assay [2] was “n.i”. Further, the “Ki β-Galase” value in assay [3] was “n.i”. Moreover, the “Ki α-Glcase1” value in assay [4] (mean ± SD) was “n.i”. Besides, at isomaltase (α-Glcase2) (setting [7]), the “Ki α-Glcase2” value is recorded as “n.i”. In addition, in assay [5], the Ki came out at 19 ± 9 µM. In addition, the “Ki α-Galase” value in assay [6] is “n.i”.

For the molecule `OC1CN2C(=Nc3ccccc3)SCC2C(O)C1O` [Compound 9, 5-N,6-S-(N′-Phenyliminomethylidene)-6-thio-1-deoxy-L-idonojirimycin], the “Ki α-Glcase3” value in assay [1] was “n.i”. In assay [2], the “Ki α-Manase” value is “n.i”. In addition, the “Ki β-Galase” value in assay [3] is “n.i”. The Ki came to 262 ± 15 µM in assay [4] (Ki α-Glcase1, mean ± SD); 309 ± 19 µM in assay [5]; 772 ± 35 µM in assay [6]. On isomaltase (α-Glcase2) (setting [7]), the “Ki α-Glcase2” value was “n.i”.

On to `CCCCCCCCNC(=S)N1C[C@H](O)[C@@H](O)[C@H](O)[C@H]1CO` [Compound 10, 1-Deoxy-N-(N′-octylthiocarbamoyl)nojirimicin], for which the Ki in assay [1] came to 129 ± 10 µM; in assay [4] (Ki α-Glcase1, mean ± SD), 481 ± 27 µM; at isomaltase (α-Glcase2) (setting [9]) it was 116 ± 8 µM; in assay [5], 1.3 ± 0.1 µM. Also, the “Ki α-Manase” value in assay [2] is listed as “n.i”. In assay [3], the “Ki β-Galase” value is given as “n.i”. In addition, the “Ki α-Galase” value in assay [6] is on record as “n.i”.

Regarding `CCCCNC(=S)N1C[C@H](O)[C@@H](O)[C@H](O)[C@H]1CO` [Compound 11, 1-Deoxy-N-(N′-butylthiocarbamoyl)nojirimicin], the Ki is 213 ± 18 µM in assay [1]; 568 ± 30 µM in assay [4] (mean ± SD, read-out: Ki α-Glcase1); 121 ± 9 µM at isomaltase (α-Glcase2) (setting [9]); 20 ± 2 µM in assay [5]; 847 ± 42 µM in assay [6]. For the same molecule, in assay [2], the “Ki α-Manase” value is listed as “n.i”. The “Ki β-Galase” value in assay [3] is given as “n.i”.

Turning to `OC[C@@H]1[C@@H](O)[C@H](O)[C@@H](O)CN1C(=S)Nc1ccccc1` [Compound 12, 1-Deoxy-N-(N′-phenylthiocarbamoyl)nojirimicin], the Ki in assay [1] was found to be 18 ± 2 µM; in assay [2], 294 ± 18 µM; in assay [4] (Ki α-Glcase1, mean ± SD), 60 ± 4 µM; at isomaltase (α-Glcase2) (setting [8]), 18 ± 2 µM; at isomaltase (α-Glcase2) (setting [9]), 10 ± 1 µM; in assay [5], 23 ± 3 µM. In addition, the Ki in assay [6] was determined as 122 ± 9 µM. Also, the “Ki β-Galase” value in assay [3] was “n.i”.

`CCCCCCCCNC(=S)N1C[C@H](O)[C@@H](O)[C@H](O)[C@@H]1CO` [Compound 13, N-(N′-Octylthiocarbamoyl)-1-deoxy-L-idonojirimycin]: in assay [1], the “Ki α-Glcase3” value is on record as “n.i”. The “Ki α-Manase” value in assay [2] is listed as “n.i”. Besides, the “Ki β-Galase” value in assay [3] was “n.i”. In addition, in assay [4] (mean ± SD), the “Ki α-Glcase1” value was “n.i”. Besides, on isomaltase (α-Glcase2) (setting [7]), the “Ki α-Glcase2” value is listed as “n.i”. For the same molecule, the Ki in assay [5] was 227 ± 13 µM; in assay [6] it was 60 ± 15 µM.

In the case of `CCCCNC(=S)N1C[C@H](O)[C@@H](O)[C@H](O)[C@@H]1CO` [Compound 14, N-(N′-Butylthiocarbamoyl)-1-deoxy-L-idonojirimycin], the “Ki α-Glcase3” value in assay [1] was “n.i”. For the same molecule, the “Ki α-Manase” value in assay [2] is listed as “n.i”. Moreover, in assay [3], the “Ki β-Galase” value was “n.i”. Besides, the “Ki α-Glcase1” value in assay [4] (mean ± SD) is “n.i”. The “Ki α-Glcase2” value on isomaltase (α-Glcase2) (setting [7]) is on record as “n.i”. Also, in assay [5], the Ki is 51 ± 13 µM. Besides, the “Ki α-Galase” value in assay [6] is on record as “n.i”.

With `OC[C@H]1[C@@H](O)[C@H](O)[C@@H](O)CN1C(=S)Nc1ccccc1` [Compound 15, N-(N′-Phenylthiocarbamoyl)-1-deoxy-L-idonojirimycin], the Ki stood at 271 ± 17 µM in assay [1]; 293 ± 18 µM in assay [4] (Ki α-Glcase1, mean ± SD); 443 ± 22 µM on isomaltase (α-Glcase2) (setting [9]); 294 ± 18 µM in assay [5]; 77 ± 16 µM in assay [6]. Besides, the “Ki α-Manase” value in assay [2] is given as “n.i”. For the same molecule, the “Ki β-Galase” value in assay [3] is on record as “n.i”.

The values above are taken from PMC6017062, “Probing the Inhibitor versus Chaperone Properties of sp^2-Iminosugars towards Human β-Glucocerebrosidase: A Picomolar Chaperone for Gaucher Disease” (Molecules : A Journal of Synthetic Chemistry and Natural …, 2018).
